Test results as given in US20090305894A1, “use of sulfonanilides as herbicide” (priority 2005, published 2009).

Legend:
Type in all cases: in vivo
[1] = test system: Scirpus juncoides Roxburgh (resistant to sulfonylurea type herbicide); assay: Herbicidal efficacy test to weeds resistant to sulfonylurea type herbicide (Test Example 1, applied on water surface, Table 8); conditions: 60 g ai/ha, applied on water surface at beginning of sprouting, rated after 3 weeks; 100% = complete withering, 0% = no effect
Method: (§1) Preparation of formulation of active compound
(§2) Carrier: DMF 5 parts by weight
(§3) Emulsifier: benzyloxypolyglycol ether 1 part by weight
(§4) The formulations of active compounds were obtained as emulsions by mixing 1 part by weight of the active compound with the carrier and emulsifier in the described amounts. The formulations were diluted with water so as to adjust a prescribed dosage.
(§5) In a greenhouse respective seeds of Scirpus juncoides Roxburgh (from Hokkaido, Japan) and Lindernia procumbens Philcox (from Saitama, Japan), which are confirmed to have resistance to a sulfonylurea type herbicide, were inoculated in pots filled with 500 cm^2 of paddy field soil and water was poured to the pot in about 2 to 3 cm depth. At the beginning of sprouting of the weeds, prescribed diluted solutions of the formulations of the respective active compounds obtained by the above-mentioned manner were applied on the water surface. After the treatment water depth of 3 cm was kept. The herbicidal effect was investigated after 3 weeks of the treatment. The herbicidal effect was rated as 100% in the case of complete withering and 0% in the case of no herbicidal effect. When the herbicidal effect was 80% or higher, the practical effectiveness as herbicides is recognized. As the representative examples, the test results of the compound Nos. 1, 3, 4, 5, 6, 7, 13, 70, 127, 128 and 130 are shown in Table 8.

[2] = test system: Lindernia procumbens Philcox (resistant to sulfonylurea type herbicide); assay: as above; conditions: 60 g ai/ha, applied on water surface at beginning of sprouting, rated after 3 weeks; 100% = complete withering, 0% = no effect
Method: as §1, §2, §3, §4, §5

[3] = test system: paddy rice seedlings (cultivar: Nihonbare); assay: Herbicide damage on transplanted paddy rice (Test Example 2, Table 9); conditions: 60 g ai/ha, applied to water surface 5 days after transplantation, rated after 3 weeks; 100% = complete withering, 0% = no damage
Method: as §4
In a greenhouse each three paddy rice seedlings (cultivar: Nihonbare) were transplanted (transplantation depth 2 cm) in each pot filled with 500 cm^2 of paddy field soil and covered with water in about 2 to 3 cm depth. After 5 days from the transplantation, prescribed diluted solutions of the formulations of the respective active compounds obtained in the same manner as in Test Example 1 were applied to the water surface of each pot. After the treatment, the water depth of 3 cm was kept. The herbicide damage was investigated after 3 weeks of the treatment. The herbicide damage was rated as 100% in the case of complete withering and 0% in the case of no herbicide damage. When the herbicide damage was 20% or lower, the safety as a paddy rice herbicide was evaluated to be excellent. As the representative examples, the test results of the compound Nos. 3, 4, 5, 6, 7, 70, 115, 127 and 128, and comparative compound C-2 are shown in Table 9.

Echinochloa crus-gali = assay: Herbicidal effect on weeds in dry field, spraying treatment on soil before sprouting (Test Example 4, Table 12); conditions: 80 g ai/ha, spraying to soil before sprouting, rated after 3 weeks
Method: as §4
(§6) In a greenhouse seeds of rice (cultivar: Balilla) and weeds (Brachiaria plantaginea, Cyperus esculntus, Cyperus iria L., Echinochloa colonum, Leptochloa chinensis, Ipomoea purpurea, and Sesbania exaltata) were inoculated on the surface layers of pots filled with 100 cm^2 of paddy field soil and covered with soil. Water was poured to produce wet state (water level 0 cm). The prescribed diluted solutions of the formulations of the respective active compounds obtained in the same manner as in Test Example 1 were sprayed on the soil of some pots on completion of the seeding and the solutions of the agents were sprayed over the plants from the above in the rest of the pots after the respective sample plants were grown in first- to third-1 eaf stage in the greenhouse. After one day from the treatment with the compound, water was poured in 3 cm depth. The herbicidal effects and herbicide damage on rice of the respective compounds were investigated after 3 weeks from the treatment. The herbicidal effect and herbicide damage on the rice were rated as 100% in the case of complete withering and 0% in the case of no herbicidal effect or no harm. When herbicidal effect was 80% or higher, it was determined to be practically applicable as herbicides. When the herbicide damage was 20% or lower, the safety of the herbicide was evaluated to be excellent.
(§7) In a greenhouse one seed each of crops in dry field (Triticum aestivum and Glycine max) and weeds (Echinochloa crus-gali and Setaria vividis) were inoculated in the surface layer in one pot filled with 16 cm^2 of dry field soil and covered with soil. The prescribed diluted solutions of the formulations of the respective active compounds obtained in the same manner as in Test Example 1 were sprayed to the soil upon the inoculation. The herbicidal effect and herbicide damage on crops of the respective compounds were investigated after 3 weeks from the treatment. Evaluations of the herbicidal effect and herbicide damage were carried out in the same manner as in Test Example 3. As the representative example, the test results of compound No. 1 and 24, and the comparative compound C-1 are shown in Table 12.

Setaria vividis = assay: as above; conditions: 80 g ai/ha, spraying to soil before sprouting, rated after 3 weeks
Method: as §4, §6, §7

Glycine max = assay: Herbicide damage to crops in dry field, spraying treatment on soil before sprouting (Test Example 4, Table 12); conditions: 80 g ai/ha, rated after 3 weeks
Method: as §4, §6, §7

Triticum aestivum = assay: as above; conditions: 80 g ai/ha, rated after 3 weeks
Method: as §4, §6, §7

rice (cultivar: Balilla) [4] = assay: Irrigated directly seeded paddy rice, herbicide damage, spraying to stems and leaves after sprouting (Test Example 3, Table 11); conditions: 20 g ai/ha, rated after 3 weeks
Method: as §4, §6

Leptochloa chinensis [5] = assay: Irrigated directly seeded paddy rice, herbicidal effect, spraying to soil before sprouting (Test Example 3, Table 10); conditions: 20 g ai/ha, rated after 3 weeks
Method: as §4, §6

Echinochloa colonum [6] = assay: as above; conditions: 20 g ai/ha, rated after 3 weeks
Method: as §4, §6

Brachiaria plantaginea [7] = assay: as above; conditions: 20 g ai/ha, rated after 3 weeks
Method: as §4, §6

Cyperus esculntus [8] = assay: as above; conditions: 20 g ai/ha, rated after 3 weeks
Method: as §4, §6

Cyperus iria L. [9] = assay: as above; conditions: 20 g ai/ha, rated after 3 weeks
Method: as §4, §6

Ipomoea purpurea [10] = assay: as above; conditions: 20 g ai/ha, rated after 3 weeks
Method: as §4, §6

Sesbania exaltata [11] = assay: as above; conditions: 20 g ai/ha, rated after 3 weeks
Method: as §4, §6

Leptochloa chinensis [12] = assay: Irrigated directly seeded paddy rice, herbicidal effect, spraying to stems and leaves after sprouting (Test Example 3, Table 11); conditions: 20 g ai/ha, rated after 3 weeks
Method: as §4, §6

Echinochloa colonum [13] = assay: as above; conditions: 20 g ai/ha, rated after 3 weeks
Method: as §4, §6

Brachiaria plantaginea [14] = assay: as above; conditions: 20 g ai/ha, rated after 3 weeks
Method: as §4, §6

Cyperus esculntus [15] = assay: as above; conditions: 20 g ai/ha, rated after 3 weeks
Method: as §4, §6

Cyperus iria L. [16] = assay: as above; conditions: 20 g ai/ha, rated after 3 weeks
Method: as §4, §6

Ipomoea purpurea [17] = assay: as above; conditions: 20 g ai/ha, rated after 3 weeks
Method: as §4, §6

Sesbania exaltata [18] = assay: as above; conditions: 20 g ai/ha, rated after 3 weeks
Method: as §4, §6

rice (cultivar: Balilla) [19] = assay: Irrigated directly seeded paddy rice, herbicide damage, spraying to soil before sprouting (Test Example 3, Table 10); conditions: 20 g ai/ha, rated after 3 weeks
Method: as §4, §6

COc1cc(OC)nc(C(O)c2ccc(Cl)c(OC)c2NS(=O)(=O)C(F)F)n1 (stereo not shown) [compound 128]
Herbicidal effect to sulfonylurea resistant weeds: Scirpus juncoides Roxburgh (from Hokkaido) [1]: 90% | Herbicidal effect to sulfonylurea resistant weeds: Lindernia procumbens Philcox (from Saitama pref.) [2]: 100% | Herbicide damage on transplanted paddy rice [3]: 0%

COc1cc(OC)nc(C(O)c2ccc(F)cc2NS(=O)(=O)C(F)F)n1 (stereo not shown) [compound 5]
Herbicidal effect to sulfonylurea resistant weeds: Scirpus juncoides Roxburgh (from Hokkaido) [1]: 100% | Herbicidal effect to sulfonylurea resistant weeds: Lindernia procumbens Philcox (from Saitama pref.) [2]: 100% | Herbicide damage on transplanted paddy rice [3]: 0%

COCN(c1c(F)cccc1C(=O)c1nc(OC)nc(OC)n1)S(=O)(=O)C(F)F [compound 24]
Herbicidal effect Echinochloa crus-gali (Echinochloa crus-gali): 80% | Herbicidal effect Setaria vividis (Setaria vividis): 90% | Herbicide damage Glycine max (Glycine max): 0% | Herbicide damage Triticum aestivum (Triticum aestivum): 0%

COc1nc(OC)nc(C(O)c2cccc(F)c2N(C)S(=O)(=O)C(F)F)n1 (stereo not shown) [compound 9]
Herbicide damage on Rice (rice (cultivar: Balilla) [4]): 20% | Herbicidal effect Leptochloa chinensis (Leptochloa chinensis [5]): 80% | Herbicidal effect Echinochloa colonum (Echinochloa colonum [6]): 100% | Herbicidal effect Brachiaria plantaginea (Brachiaria plantaginea [7]): 70% | Herbicidal effect Cyperus esculntus (Cyperus esculntus [8]): 100% | Herbicidal effect Cyperusiria L. (Cyperus iria L. [9]): 100% | Herbicidal effect Ipomoea purpurea (Ipomoea purpurea [10]): 70% | Herbicidal effect Sesbania exaltata (Sesbania exaltata [11]): 100% | Herbicidal effect Leptochloa chinensis (Leptochloa chinensis [12]): 60% | Herbicidal effect Echinochloa colonum (Echinochloa colonum [13]): 100% | Herbicidal effect Brachiaria plantaginea (Brachiaria plantaginea [14]): 100% | Herbicidal effect Cyperus esculntus (Cyperus esculntus [15]): 100% | Herbicidal effect Cyperusiria L. (Cyperus iria L. [16]): 100% | Herbicidal effect Ipomoea purpurea (Ipomoea purpurea [17]): 100% | Herbicidal effect Sesbania exaltata (Sesbania exaltata [18]): 100% | Herbicide damage on Rice (rice (cultivar: Balilla) [19]): 20%

COCc1cccc(C(O)c2nc(OC)cc(OC)n2)c1NS(=O)(=O)C(F)F (stereo not shown) [C-2, reference compound]
Herbicide damage on transplanted paddy rice [3]: 30%

CCOc1cccc(C(O)c2nc(OC)cc(OC)n2)c1NS(=O)(=O)C(F)F (stereo not shown) [compound 130]
Herbicidal effect to sulfonylurea resistant weeds: Scirpus juncoides Roxburgh (from Hokkaido) [1]: 100% | Herbicidal effect to sulfonylurea resistant weeds: Lindernia procumbens Philcox (from Saitama pref.) [2]: 100%

COc1nc(OC)nc(C(=O)c2cccc(Cl)c2N(C)S(=O)(=O)C(F)F)n1 [compound 2]
Herbicide damage on Rice (rice (cultivar: Balilla) [4]): 10% | Herbicidal effect Leptochloa chinensis (Leptochloa chinensis [5]): 90% | Herbicidal effect Echinochloa colonum (Echinochloa colonum [6]): 80% | Herbicidal effect Brachiaria plantaginea (Brachiaria plantaginea [7]): 80% | Herbicidal effect Cyperus esculntus (Cyperus esculntus [8]): 90% | Herbicidal effect Cyperusiria L. (Cyperus iria L. [9]): 100% | Herbicidal effect Ipomoea purpurea (Ipomoea purpurea [10]): 80% | Herbicidal effect Sesbania exaltata (Sesbania exaltata [11]): 80% | Herbicidal effect Echinochloa colonum (Echinochloa colonum [13]): 100% | Herbicidal effect Brachiaria plantaginea (Brachiaria plantaginea [14]): 100% | Herbicidal effect Cyperus esculntus (Cyperus esculntus [15]): 100% | Herbicidal effect Cyperusiria L. (Cyperus iria L. [16]): 100% | Herbicidal effect Ipomoea purpurea (Ipomoea purpurea [17]): 100% | Herbicidal effect Sesbania exaltata (Sesbania exaltata [18]): 100% | Herbicide damage on Rice (rice (cultivar: Balilla) [19]): 30%

COc1cc(OC)nc(C(O)c2ccc(Cl)c(F)c2NS(=O)(=O)C(F)F)n1 (stereo not shown) [compound 4, 2-fluoro-3-chloro-6-[1-(4,6-dimethoxypyrimidin-2-yl)-1-hydroxymethyl]-N-difluoromethanesulfonanilide]
Herbicidal effect to sulfonylurea resistant weeds: Scirpus juncoides Roxburgh (from Hokkaido) [1]: 100% | Herbicidal effect to sulfonylurea resistant weeds: Lindernia procumbens Philcox (from Saitama pref.) [2]: 100% | Herbicide damage on transplanted paddy rice [3]: 10%

COc1cc(OC)nc(C(O)c2ccc(F)c(F)c2NS(=O)(=O)C(F)F)n1 (stereo not shown) [Compound No. 3, 2,3-Difluoro-6-[1-(4,6-dimethoxypyrimidin-2-yl)-1-hydroxymethyl]-N-difluoromethanesulfonanilide]
Herbicidal effect to sulfonylurea resistant weeds: Scirpus juncoides Roxburgh (from Hokkaido) [1]: 100% | Herbicidal effect to sulfonylurea resistant weeds: Lindernia procumbens Philcox (from Saitama pref.) [2]: 100% | Herbicide damage on transplanted paddy rice [3]: 10%

COc1cc(OC)nc(C(O)c2c(F)ccc(F)c2NS(=O)(=O)C(F)F)n1 (stereo not shown) [compound 7]
Herbicidal effect to sulfonylurea resistant weeds: Scirpus juncoides Roxburgh (from Hokkaido) [1]: 100% | Herbicidal effect to sulfonylurea resistant weeds: Lindernia procumbens Philcox (from Saitama pref.) [2]: 100% | Herbicide damage on transplanted paddy rice [3]: 10%

COC(=O)c1ccccc1CS(=O)(=O)NC(=O)Nc1nc(OC)cc(OC)n1 [C-4, Bensulfuron-methyl, reference compound]
Herbicidal effect to sulfonylurea resistant weeds: Scirpus juncoides Roxburgh (from Hokkaido) [1]: 10% | Herbicidal effect to sulfonylurea resistant weeds: Lindernia procumbens Philcox (from Saitama pref.) [2]: 10%

CCOc1ccccc1OS(=O)(=O)NC(=O)Nc1nc(OC)cc(OC)n1 [C-3, Ethoxysulfuron, reference compound]
Herbicidal effect to sulfonylurea resistant weeds: Scirpus juncoides Roxburgh (from Hokkaido) [1]: 10% | Herbicidal effect to sulfonylurea resistant weeds: Lindernia procumbens Philcox (from Saitama pref.) [2]: 10%

COc1cc(OC)nc(C(O)c2c(F)cccc2NS(=O)(=O)C(F)F)n1 (stereo not shown) [compound 6]
Herbicidal effect to sulfonylurea resistant weeds: Scirpus juncoides Roxburgh (from Hokkaido) [1]: 100% | Herbicidal effect to sulfonylurea resistant weeds: Lindernia procumbens Philcox (from Saitama pref.) [2]: 100% | Herbicide damage on transplanted paddy rice [3]: 10%

COc1cc(OC)nc(C(O)c2ccc(F)c(C)c2NS(=O)(=O)C(F)F)n1 (stereo not shown) [compound 70]
Herbicidal effect to sulfonylurea resistant weeds: Scirpus juncoides Roxburgh (from Hokkaido) [1]: 100% | Herbicidal effect to sulfonylurea resistant weeds: Lindernia procumbens Philcox (from Saitama pref.) [2]: 90% | Herbicide damage on transplanted paddy rice [3]: 10%

COc1cc(OC)nc(C(O)c2ccc(F)c(OC)c2NS(=O)(=O)C(F)F)n1 (stereo not shown) [compound 127]
Herbicidal effect to sulfonylurea resistant weeds: Scirpus juncoides Roxburgh (from Hokkaido) [1]: 100% | Herbicidal effect to sulfonylurea resistant weeds: Lindernia procumbens Philcox (from Saitama pref.) [2]: 90% | Herbicide damage on transplanted paddy rice [3]: 0%

COc1nc(OC)nc(C(=O)c2cccc(OC)c2N(C)S(=O)(=O)C(F)F)n1 [compound 115]
Herbicide damage on transplanted paddy rice [3]: 0%
